In patent publication US11707539B2, “FAP-targeted radiopharmaceuticals and imaging agents, and uses related thereto” (Trustees of Tufts College, priority 2020, dated 2023):

Columns and labels:
[1] = system: HEK-mFAP tumor-bearing mice; experiment: 68Ga biodistribution, gamma counting after 50 min uptake; format: in vivo, mouse
Method: Part 2 Biodistribution. The aim of the study is to assess ^68Ga-6555 biodistribution in HEK-mFAP tumor-bearing mice. HEK-mFAP tumor-bearing mice were used for the study (N=3). The mice were injected with ˜8 MBq (7.3-8.5 MBq range) of ^68Ga-6555 (prepared as per Example 20; IV through the tail vein using a catheter mounted with a 30 Ga needle). After 50 min uptake time (injection was performed under anesthasia using isoflurane inhalant, and stayed under anesthesia for 50 min), the mice were euthanized (with CO2) and tissues were collected (blood via cardiac puncture, heart, lungs, liver, spleen, pancreas, stomach, small intestine, kidney, muscle, femur, bone, skin, brain, tumor). After excision, the tissue samples were counted for gallium-68 radioactivity on a Cobra-II Auto-Gamma counter (Packard Instruments, Meriden, CTA), weighted, and data were expressed as % injected dose per gram (% ID/g).
Conducted as per Example 24 using ^68Ga-6952 prepared as per Example 22.
Biodistribution. The mice were injected with ˜8.6 MBq (7.6-10.0 MBq range). The majority of activity was located in the tumor (average % ID/g of 8.8). The kidney has the next largest amount of activity (average % ID/g of 2.18). […]

[2] = system: HEK-mFAP tumor-bearing mice; experiment: 68Ga dynamic PET/CT imaging; format: in vivo, mouse; conditions: dynamic PET over 60 min, IV bolus
Method: Part 1. Dynamic PET Imaging. The aim of the study is to perform ^68Ga-6555 PET/CT dynamic imaging in HEK-mFAP tumor-bearing mice to assess tumor uptake and retention over time, as well as non-specific uptake. HEK-mFAP tumor-bearing mice were used for the study (N=3). ^68Ga-6555 (prepared as per Example 20) PET imaging was carried out on a dedicated small animal PET/CT scanner (Siemens Multimodality Inveon, Siemens Medical Solutions USA, Inc.). The mice were anesthetized using 3% isoflurane/medical air inhalation prior to the radiotracer injection and throughout the scan duration. Warming was used to maintain healthy core body temperature of the mice during periods of unconsciousness. Following a bolus intravenous injection (via the lateral tail vein) of ^68Ga-6555 (average of 8 MBq, 7.7-8.1 MBq range), a dynamic emission scan was acquired in list mode format over 60 min. […] The reconstructed PET/CT images were analyzed with the Siemens Inveon Research Workplace software. The radioactivity retention within the selected tissue was obtained from mean voxel intensity values within the VOI and then converted to megabecquerels per milliliter using the calibration factor determined for the Inveon PET System. […] We used the maximum SUV value (SUVmax) within a VOI as a quantitative imaging metric which is independent of tissue intrinsic variations. […]

`C[C@@H](NC(=O)c1ccc(CNC(=O)CN2CCN3CCN4CCN(CC2)CC(=O)[O][Ga]([O]C(=O)C3)[O]C(=O)C4)cc1)C(=O)N1CCC[C@H]1B(O)O` [[^68Ga]-6555] was tested, and the “uptake in all other selected tissues” value ([1]; 50 min uptake time, IV) was “low level of uptake comparable to the muscle”, the “% ID/g Blood, AVERAGE” value ([1]; Blood, 50 min uptake after IV injection, average of N=3 mice) was 0.57 % ID/g and the “% ID/g Blood, mouse #002” value ([1]; Blood, 50 min uptake, individual mouse #002) was 0.67 % ID/g. For the same compound, the “% ID/g Blood, mouse #005” value ([1]; Blood, 50 min uptake, individual mouse #005) was 0.38 % ID/g, the “% ID/g Blood, mouse #009” value ([1]; Blood, 50 min uptake, individual mouse #009) was 0.64 % ID/g and the “% ID/g Bone (femur), AVERAGE” value ([1]; Bone (femur), 50 min uptake after IV injection, average of N=3 mice) was 0.33 % ID/g. The “% ID/g Bone (femur), mouse #002” value ([1]; Bone (femur), 50 min uptake, individual mouse #002) was 0.31 % ID/g, the “% ID/g Bone (femur), mouse #005” value ([1]; Bone (femur), 50 min uptake, individual mouse #005) was 0.50 % ID/g and the “% ID/g Bone (femur), mouse #009” value ([1]; Bone (femur), 50 min uptake, individual mouse #009) was 0.20 % ID/g. The “% ID/g Brain, AVERAGE” value ([1]; Brain, 50 min uptake after IV injection, average of N=3 mice) was 0.07 % ID/g, the “% ID/g Brain, mouse #002” value ([1]; Brain, 50 min uptake, individual mouse #002) was 0.03 % ID/g and the “% ID/g Brain, mouse #005” value ([1]; Brain, 50 min uptake, individual mouse #005) was 0.07 % ID/g. For the same compound, the “% ID/g Brain, mouse #009” value ([1]; Brain, 50 min uptake, individual mouse #009) was 0.10 % ID/g, the “% ID/g Heart, AVERAGE” value ([1]; Heart, 50 min uptake after IV injection, average of N=3 mice) was 0.34 % ID/g and the “% ID/g Heart, mouse #002” value ([1]; Heart, 50 min uptake, individual mouse #002) was 0.41 % ID/g. The “% ID/g Heart, mouse #005” value ([1]; Heart, 50 min uptake, individual mouse #005) was 0.17 % ID/g, the “% ID/g Heart, mouse #009” value ([1]; Heart, 50 min uptake, individual mouse #009) was 0.43 % ID/g and the “% ID/g Kidneys, AVERAGE” value ([1]; Kidneys, 50 min uptake after IV injection, average of N=3 mice) was 1.37 % ID/g. The “% ID/g Kidneys, mouse #002” value ([1]; Kidneys, 50 min uptake, individual mouse #002) was 1.50 % ID/g, the “% ID/g Kidneys, mouse #005” value ([1]; Kidneys, 50 min uptake, individual mouse #005) was 1.03 % ID/g and the “% ID/g Kidneys, mouse #009” value ([1]; Kidneys, 50 min uptake, individual mouse #009) was 1.58 % ID/g. For the same compound, the “% ID/g Liver, AVERAGE” value ([1]; Liver, 50 min uptake after IV injection, average of N=3 mice) was 1.01 % ID/g, the “% ID/g Liver, mouse #002” value ([1]; Liver, 50 min uptake, individual mouse #002) was 1.00 % ID/g and the “% ID/g Liver, mouse #005” value ([1]; Liver, 50 min uptake, individual mouse #005) was 0.79 % ID/g. The “% ID/g Liver, mouse #009” value ([1]; Liver, 50 min uptake, individual mouse #009) was 1.23 % ID/g, the “% ID/g Lungs, AVERAGE” value ([1]; Lungs, 50 min uptake after IV injection, average of N=3 mice) was 0.56 % ID/g and the “% ID/g Lungs, mouse #002” value ([1]; Lungs, 50 min uptake, individual mouse #002) was 0.62 % ID/g. For the same compound, the “% ID/g Lungs, mouse #005” value ([1]; Lungs, 50 min uptake, individual mouse #005) was 0.39 % ID/g, the “% ID/g Lungs, mouse #009” value ([1]; Lungs, 50 min uptake, individual mouse #009) was 0.67 % ID/g and the “% ID/g Muscle, AVERAGE” value ([1]; Muscle, 50 min uptake after IV injection, average of N=3 mice) was 0.74 % ID/g. The “% ID/g Muscle, mouse #002” value ([1]; Muscle, 50 min uptake, individual mouse #002) was 0.09 % ID/g, the “% ID/g Muscle, mouse #005” value ([1]; Muscle, 50 min uptake, individual mouse #005) was 0.21 % ID/g and the “% ID/g Muscle, mouse #009” value ([1]; Muscle, 50 min uptake, individual mouse #009) was 1.92 % ID/g. For the same compound, the “% ID/g Pancreas, AVERAGE” value ([1]; Pancreas, 50 min uptake after IV injection, average of N=3 mice) was 0.92 % ID/g, the “% ID/g Pancreas, mouse #002” value ([1]; Pancreas, 50 min uptake, individual mouse #002) was 1.41 % ID/g and the “% ID/g Pancreas, mouse #005” value ([1]; Pancreas, 50 min uptake, individual mouse #005) was 0.93 % ID/g. For the same compound, the “% ID/g Pancreas, mouse #009” value ([1]; Pancreas, 50 min uptake, individual mouse #009) was 0.42 % ID/g, the “% ID/g Skin, AVERAGE” value ([1]; Skin, 50 min uptake after IV injection, average of N=3 mice) was 0.28 % ID/g and the “% ID/g Skin, mouse #002” value ([1]; Skin, 50 min uptake, individual mouse #002) was 0.31 % ID/g. For the same compound, the “% ID/g Skin, mouse #005” value ([1]; Skin, 50 min uptake, individual mouse #005) was 0.27 % ID/g, the “% ID/g Skin, mouse #009” value ([1]; Skin, 50 min uptake, individual mouse #009) was 0.25 % ID/g and the “% ID/g Small intestine, AVERAGE” value ([1]; Small intestine, 50 min uptake after IV injection, average of N=3 mice) was 0.31 % ID/g. The “% ID/g Small intestine, mouse #002” value ([1]; Small intestine, 50 min uptake, individual mouse #002) was 0.39 % ID/g, the “% ID/g Small intestine, mouse #005” value ([1]; Small intestine, 50 min uptake, individual mouse #005) was 0.19 % ID/g and the “% ID/g Small intestine, mouse #009” value ([1]; Small intestine, 50 min uptake, individual mouse #009) was 0.35 % ID/g. The “% ID/g Spleen, AVERAGE” value ([1]; Spleen, 50 min uptake after IV injection, average of N=3 mice) was 0.77 % ID/g, the “% ID/g Spleen, mouse #002” value ([1]; Spleen, 50 min uptake, individual mouse #002) was 0.23 % ID/g and the “% ID/g Spleen, mouse #005” value ([1]; Spleen, 50 min uptake, individual mouse #005) was 0.74 % ID/g. The “% ID/g Spleen, mouse #009” value ([1]; Spleen, 50 min uptake, individual mouse #009) was 1.34 % ID/g, the “% ID/g Stomach, AVERAGE” value ([1]; Stomach, 50 min uptake after IV injection, average of N=3 mice) was 0.20 % ID/g and the “% ID/g Stomach, mouse #002” value ([1]; Stomach, 50 min uptake, individual mouse #002) was 0.07 % ID/g. For the same compound, the “% ID/g Stomach, mouse #005” value ([1]; Stomach, 50 min uptake, individual mouse #005) was 0.21 % ID/g, the “% ID/g Stomach, mouse #009” value ([1]; Stomach, 50 min uptake, individual mouse #009) was 0.32 % ID/g and the “% ID/g Tumor, AVERAGE” value ([1]; Tumor (HEK-mFAP), 50 min uptake after IV injection, average of N=3 mice) was 10.10 % ID/g. For the same compound, the “% ID/g Tumor, mouse #002” value ([1]; Tumor (HEK-mFAP), 50 min uptake, individual mouse #002) was 10.01 % ID/g, the “% ID/g Tumor, mouse #005” value ([1]; Tumor (HEK-mFAP), 50 min uptake, individual mouse #005) was 8.47 % ID/g and the “% ID/g Tumor, mouse #009” value ([1]; Tumor (HEK-mFAP), 50 min uptake, individual mouse #009) was 11.83 % ID/g. The “average % ID/g” value ([1]; kidney, 50 min uptake time, IV) was 1.37 % ID/g, the “average % ID/g” value ([1]; tumor, 50 min uptake time, IV) was 10.1 % ID/g and the “time of accumulation in the tumor (time-vs-activity curve)” value [2] was under 5 min. The “time of reaching a plateau in the tumor” value [2] was 60 min.
